What all share (assay): Cysteine liganding, probe competition
Type in all cases: binding

The target of experiment [1] is T1, ANAPC7 Anaphase-promoting complex subunit 7 (Homo sapiens, UniProt Q9UJX3).
T1 construct: Cells were resuspended in cold PBS on ice and sonicated with a probe sonicator to achieve lysis; endogenous in cells
In outline:
(§1)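 Read-out is loss of desthiobiotin iodoacetamide labelling at cysteines, measured on streptavidin-enriched tryptic peptides. Compound preincubation ran 1 hr at 25° C in PBS lysate holding 5 mg/ml proteome before the probe was added.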

In experiment [2] the target is T2, ATG16L1 Autophagy-related protein 16-1 (Homo sapiens, UniProt Q676U5).
T2 construct: 200 μL of lysate containing 5 mg/ml proteome was treated with 2 μL of 100× compound stock; endogenous in cells
T2 sequence (Q676U5 whole entry): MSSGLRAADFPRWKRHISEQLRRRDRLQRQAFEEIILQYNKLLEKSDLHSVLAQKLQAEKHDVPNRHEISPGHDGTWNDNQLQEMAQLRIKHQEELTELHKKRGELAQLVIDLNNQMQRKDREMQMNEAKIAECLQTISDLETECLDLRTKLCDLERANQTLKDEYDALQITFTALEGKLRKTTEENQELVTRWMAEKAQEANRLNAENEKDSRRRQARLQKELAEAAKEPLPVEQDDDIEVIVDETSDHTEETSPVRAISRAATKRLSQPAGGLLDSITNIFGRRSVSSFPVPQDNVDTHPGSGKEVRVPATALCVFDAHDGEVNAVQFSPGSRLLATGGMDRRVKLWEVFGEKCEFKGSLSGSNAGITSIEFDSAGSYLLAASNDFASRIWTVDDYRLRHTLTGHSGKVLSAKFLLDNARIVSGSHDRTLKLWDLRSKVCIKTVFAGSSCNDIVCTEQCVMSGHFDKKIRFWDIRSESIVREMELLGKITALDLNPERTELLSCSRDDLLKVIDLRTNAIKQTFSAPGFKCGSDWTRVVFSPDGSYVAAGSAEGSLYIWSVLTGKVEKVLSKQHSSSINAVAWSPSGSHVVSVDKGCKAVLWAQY
A digest of the protocol:
as §1

In experiment [3] the target is T3, CDK18 Cyclin-dependent kinase 18 (Homo sapiens, UniProt Q07002).
T3 construct: 200 μL of lysate containing 5 mg/ml proteome was treated with 2 μL of 100× compound stock; endogenous in cells
T3 sequence (Q07002 whole entry): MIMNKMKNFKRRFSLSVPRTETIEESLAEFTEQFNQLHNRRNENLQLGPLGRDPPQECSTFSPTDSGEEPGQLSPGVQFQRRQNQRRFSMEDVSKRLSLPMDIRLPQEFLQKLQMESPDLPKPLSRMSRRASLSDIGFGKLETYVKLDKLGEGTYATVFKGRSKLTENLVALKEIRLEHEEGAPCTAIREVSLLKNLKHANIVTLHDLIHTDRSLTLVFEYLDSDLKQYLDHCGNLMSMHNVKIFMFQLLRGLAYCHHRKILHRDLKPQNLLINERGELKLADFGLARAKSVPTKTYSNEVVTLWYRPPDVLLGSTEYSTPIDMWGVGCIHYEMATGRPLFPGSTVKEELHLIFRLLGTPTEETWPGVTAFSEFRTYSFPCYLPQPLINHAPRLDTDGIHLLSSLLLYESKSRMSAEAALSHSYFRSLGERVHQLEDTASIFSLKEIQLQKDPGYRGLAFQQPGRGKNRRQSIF
As to conditions: for Liganded: CDK18 Res# 183, uniprot Q07002. A digest of the protocol:
as §1

Experiment [4] has as its target T4, FLYWCH2 FLYWCH family member 2 (Homo sapiens, UniProt Q96CP2).
T4 construct: 200 μL of lysate containing 5 mg/ml proteome was treated with 2 μL of 100× compound stock; endogenous in cells
T4 sequence (Q96CP2 1-140): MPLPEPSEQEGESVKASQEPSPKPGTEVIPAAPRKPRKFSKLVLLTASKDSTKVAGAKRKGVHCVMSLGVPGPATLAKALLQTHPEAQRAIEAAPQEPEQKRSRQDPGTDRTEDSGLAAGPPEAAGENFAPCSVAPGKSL
In outline:
as §1

Experiment [5] has as its target T5, LGMN Legumain (Homo sapiens, UniProt Q99538).
T5 construct: Cells were resuspended in cold PBS on ice and sonicated with a probe sonicator to achieve lysis; endogenous in cells
T5 sequence (Q99538 18-323): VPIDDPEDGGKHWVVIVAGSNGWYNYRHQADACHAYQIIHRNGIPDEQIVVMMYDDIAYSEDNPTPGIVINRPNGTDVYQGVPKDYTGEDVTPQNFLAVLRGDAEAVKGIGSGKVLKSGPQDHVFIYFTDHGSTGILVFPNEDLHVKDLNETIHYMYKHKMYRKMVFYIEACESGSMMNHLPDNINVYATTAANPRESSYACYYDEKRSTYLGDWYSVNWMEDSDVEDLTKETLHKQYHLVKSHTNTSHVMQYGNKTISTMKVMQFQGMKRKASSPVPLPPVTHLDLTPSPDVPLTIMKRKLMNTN
Particulars: for 100 Max / 100 ave / 500 Max / 500 ave: uniprot Q99538. A digest of the protocol: as §1

Experiment [6] deals with T6, SNX8 Sorting nexin-8 (Homo sapiens, UniProt Q9Y5X2).
T6 construct: Cells were resuspended in cold PBS on ice and sonicated with a probe sonicator to achieve lysis; endogenous in cells
T6 sequence (Q9Y5X2 1-465): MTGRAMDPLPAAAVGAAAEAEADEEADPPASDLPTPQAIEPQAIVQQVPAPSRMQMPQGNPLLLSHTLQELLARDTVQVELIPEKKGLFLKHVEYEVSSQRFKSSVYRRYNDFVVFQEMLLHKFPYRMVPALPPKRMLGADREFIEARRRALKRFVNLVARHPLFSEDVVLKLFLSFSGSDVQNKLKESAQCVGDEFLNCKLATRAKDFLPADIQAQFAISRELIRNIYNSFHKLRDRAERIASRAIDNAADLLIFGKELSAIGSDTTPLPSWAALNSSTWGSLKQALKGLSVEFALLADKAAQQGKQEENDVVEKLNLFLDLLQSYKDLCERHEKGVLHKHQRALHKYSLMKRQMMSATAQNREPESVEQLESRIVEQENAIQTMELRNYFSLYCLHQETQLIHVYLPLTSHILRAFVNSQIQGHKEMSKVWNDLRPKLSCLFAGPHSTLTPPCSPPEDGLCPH
A digest of the protocol: as §1

T1 sequence (Q9UJX3 whole entry, one chain of several): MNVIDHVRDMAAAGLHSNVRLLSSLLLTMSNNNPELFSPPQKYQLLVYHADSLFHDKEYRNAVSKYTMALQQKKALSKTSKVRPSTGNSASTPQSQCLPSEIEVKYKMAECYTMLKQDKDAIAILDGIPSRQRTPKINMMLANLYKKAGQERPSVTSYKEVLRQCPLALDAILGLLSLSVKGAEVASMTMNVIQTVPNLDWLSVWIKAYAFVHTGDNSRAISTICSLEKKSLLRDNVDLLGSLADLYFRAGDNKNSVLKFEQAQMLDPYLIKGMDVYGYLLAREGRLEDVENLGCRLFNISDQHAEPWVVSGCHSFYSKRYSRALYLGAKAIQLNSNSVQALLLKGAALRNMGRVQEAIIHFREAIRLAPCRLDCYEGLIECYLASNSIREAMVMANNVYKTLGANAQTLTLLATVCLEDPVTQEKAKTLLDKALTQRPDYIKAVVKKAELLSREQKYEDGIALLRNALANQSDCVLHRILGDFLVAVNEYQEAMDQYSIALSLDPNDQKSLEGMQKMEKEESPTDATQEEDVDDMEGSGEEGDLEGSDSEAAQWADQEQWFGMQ

In the case of `COc1ccc2c(c1)CCCN2C(=O)CCl` [KB02], the Liganded entry in experiment [1] (ANAPC7 Res# 329, uniprot Q9UJX3) was “YES”; in experiment [2] (ATG16L1 Res# 145, uniprot Q676U5), “YES”; in experiment [3], “YES”; in experiment [4] (FLYWCH2 Res# 64, uniprot Q96CP2) it was “YES”; in experiment [5] (LGMN Res# 50, uniprot Q99538), “YES”; in experiment [6] (SNX8 Res# 200, uniprot Q9Y5X2), “YES”. In experiment [5], the “100 Max” value was determined as 33.6. The same compound yielded a 100 ave in experiment [5] of 20.31. Moreover, in experiment [5], the “500 Max” value came to 78.38. In experiment [5], this compound returned a 500 ave of 78.38.

With `O=C(CCl)Nc1cc(C(F)(F)F)cc(C(F)(F)F)c1` [KBO3], the “100 Max” value in experiment [1] (uniprot Q9UJX3) is recorded as 60.9; in experiment [2] (uniprot Q676U5), −47.09; in experiment [3] (uniprot Q07002), 50.67; in experiment [4] (uniprot Q96CP2) it was 12.97; in experiment [5], 12.45; in experiment [6] (uniprot Q9Y5X2), 36.21. In addition, the 100 ave was 47.5 in experiment [1] (uniprot Q9UJX3); −47.09 in experiment [2] (uniprot Q676U5); 28.2075 in experiment [3] (uniprot Q07002); 2.25 in experiment [4] (uniprot Q96CP2); 0.755 in experiment [5]; 36.21 in experiment [6] (uniprot Q9Y5X2). The “500 Max” value in experiment [1] (uniprot Q9UJX3) came out at 73.4; in experiment [2] (uniprot Q676U5) it was 18.73; in experiment [3] (uniprot Q07002) it was 80.44; in experiment [4] (uniprot Q96CP2), 41.66; in experiment [5], 60.93. In addition, the 500 ave was 68.4 in experiment [1] (uniprot Q9UJX3); 18.73 in experiment [2] (uniprot Q676U5); 79.225 in experiment [3] (uniprot Q07002); 41.635 in experiment [4] (uniprot Q96CP2); 60.93 in experiment [5]. Also, in experiment [3], the Liganded entry is recorded as “YES”.

Source of the values: patent US20200239530A1, “COMPOUNDS AND METHODS OF MODULATING PROTEIN DEGRADATION” (Vividion Therapeutics, Inc., priority 2017, published 2020).
